Test results as given in the supplement of paper PMC10307832.

Experiments:
Test in all cases: relative viability (nuclei count vs DMSO), 5 days (fraction); higher = more cells survive
Carboplatin + Navitoclax = compound: C1CC(C1)(C(=O)O)C(=O)O.[NH2-].[NH2-].[Pt+2] [Carboplatin] + CC1(C)CCC(c2ccc(Cl)cc2)=C(CN2CCN(c3ccc(C(=O)NS(=O)(=O)c4ccc(N[C@H](CCN5CCOCC5)CSc5ccccc5)c(S(=O)(=O)C(F)(F)F)c4)cc3)CC2)C1 [Navitoclax] (partner 0.5 µM)
How it was run: (§1)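 Each reported value is a median over duplicate plates. It expresses relative viability: treated-well nuclei count divided by vehicle-well nuclei count. Lung cancer cell lines in 1536-well plates were dosed by pin tool a day after seeding, alone with one drug or with a fixed anchor-drug dose plus five library-drug doses (not always all listed) in √10 steps, and nuclei were counted after 5 days.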

GSK126 + Palbociclib = compound: CC[C@H](C)N1C=C(C2=C(C=C(C=C21)C3=CN=C(C=C3)N4CCNCC4)C(=O)NCC5=C(C=C(NC5=O)C)C)C [GSK126] + CC(=O)c1c(C)c2cnc(Nc3ccc(N4CCNCC4)cn3)nc2n(C2CCCC2)c1=O [Palbociclib] (partner 0.5 µM)
How it was run: as §1

GSK126 + Navitoclax = compound: CC[C@H](C)N1C=C(C2=C(C=C(C=C21)C3=CN=C(C=C3)N4CCNCC4)C(=O)NCC5=C(C=C(NC5=O)C)C)C [GSK126] + CC1(C)CCC(c2ccc(Cl)cc2)=C(CN2CCN(c3ccc(C(=O)NS(=O)(=O)c4ccc(N[C@H](CCN5CCOCC5)CSc5ccccc5)c(S(=O)(=O)C(F)(F)F)c4)cc3)CC2)C1 [Navitoclax] (partner 0.5 µM)
How it was run: as §1

MLN4924 + Pemetrexed = compound: NS(=O)(=O)OC[C@@H]1C[C@@H](n2ccc3c(N[C@H]4CCc5ccccc54)ncnc32)C[C@@H]1O [MLN4924] + Nc1nc2[nH]cc(CCc3ccc(C(=O)N[C@@H](CCC(=O)O)C(=O)O)cc3)c2c(=O)[nH]1 [Pemetrexed] (partner 0.2 µM)
How it was run: as §1

| Cell Line | relative viability (Carboplatin + Navitoclax; first compound 0.08 µM) | relative viability (Carboplatin + Navitoclax; first compound 0.253 µM) | relative viability (Carboplatin + Navitoclax; first compound 0.8 µM) | relative viability (Carboplatin + Navitoclax; first compound 2.53 µM) | relative viability (Carboplatin + Navitoclax; first compound 8 µM) | relative viability (GSK126 + Palbociclib; first compound 0.08 µM) | relative viability (GSK126 + Palbociclib; first compound 0.253 µM) | relative viability (GSK126 + Palbociclib; first compound 0.8 µM) | relative viability (GSK126 + Palbociclib; first compound 2.53 µM) | relative viability (GSK126 + Palbociclib; first compound 8 µM) | relative viability (GSK126 + Navitoclax; first compound 0.08 µM) | relative viability (GSK126 + Navitoclax; first compound 0.253 µM) | relative viability (GSK126 + Navitoclax; first compound 0.8 µM) | relative viability (GSK126 + Navitoclax; first compound 2.53 µM) | relative viability (GSK126 + Navitoclax; first compound 8 µM) | relative viability (MLN4924 + Pemetrexed; first compound 0.04 µM) | relative viability (MLN4924 + Pemetrexed; first compound 0.1265 µM) | relative viability (MLN4924 + Pemetrexed; first compound 0.4 µM) | relative viability (MLN4924 + Pemetrexed; first compound 1.265 µM) | relative viability (MLN4924 + Pemetrexed; first compound 4 µM) |
| --- | --- | --- | --- | --- | --- | --- | --- | --- | --- | --- | --- | --- | --- | --- | --- | --- | --- | --- | --- | --- |
| NCI-H838 | 1.22 | 1.08 | 1.16 | 1.11 | 1.06 | 0.264 | 0.223 | 0.202 | 0.212 | 0.234 | 1.15 | 1.18 | 1.09 | 1.1 | 0.978 | 0.225 | 0.2 | 0.188 | 0.173 | 0.164 |
| NCI-H2347 | 0.897 | 0.929 | 0.771 | 0.721 | 0.673 | 0.46 | 0.385 | 0.469 | 0.422 | 0.439 | 1.03 | 0.679 | 0.688 | 0.799 | 0.772 | 0.376 | 0.438 | 0.369 | 0.396 | 0.36 |
| NCI-H1395 | 1.16 | 1.2 | 0.799 | 0.845 | 0.591 | 0.656 | 0.568 | 0.597 | 0.681 | 0.505 | 1.59 | 1.04 | 1.09 | 1.33 | 0.95 | 0.847 | 0.773 | 0.678 | 0.349 | 0.305 |
| NCI-H647 | 1.18 | 1.17 | 1.08 | 1.09 | 0.784 | 0.482 | 0.366 | 0.363 | 0.382 | 0.5 | 1.14 | 1.05 | 1.07 | 1.11 | 1.15 | 0.156 | 0.119 | 0.0763 | 0.0395 | 0.0465 |
| NCI-H520 | 1.16 | 1.09 | 0.961 | 1.02 | 0.857 | 0.21 | 0.233 | 0.221 | 0.209 | 0.268 | 1.24 | 1.02 | 1.03 | 1.14 | 1.34 | 0.489 | 0.368 | 0.271 | 0.193 | 0.172 |
